Measured values from patent publication US8658604B2, “Template-fixed beta-hairpin peptidomimetics with protease inhibitory activity” (Polyphor Ltd, priority 2005, dated 2014).
Where a SMILES comes first, the peptide text is derived from it.

How the values were obtained:
[1] = molecular target: T1, CathepsinG, from human neutrophils (Homo sapiens, UniProt P08311); test: Enzymatic assay, cathepsin G; settings: Cathepsin G IC50
T1 sequence (P08311 21-244): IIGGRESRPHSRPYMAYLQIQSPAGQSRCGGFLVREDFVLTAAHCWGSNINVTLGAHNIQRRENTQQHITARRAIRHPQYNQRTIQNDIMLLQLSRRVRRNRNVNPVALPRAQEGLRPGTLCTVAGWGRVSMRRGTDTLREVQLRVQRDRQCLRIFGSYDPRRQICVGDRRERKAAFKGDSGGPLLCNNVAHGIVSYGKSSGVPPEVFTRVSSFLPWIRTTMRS

[2] = molecular target: T2, Elastase from human neutrophils (Homo sapiens, UniProt P08246); test: Enzymatic assay, elastase
T2 sequence (P08246 30-267): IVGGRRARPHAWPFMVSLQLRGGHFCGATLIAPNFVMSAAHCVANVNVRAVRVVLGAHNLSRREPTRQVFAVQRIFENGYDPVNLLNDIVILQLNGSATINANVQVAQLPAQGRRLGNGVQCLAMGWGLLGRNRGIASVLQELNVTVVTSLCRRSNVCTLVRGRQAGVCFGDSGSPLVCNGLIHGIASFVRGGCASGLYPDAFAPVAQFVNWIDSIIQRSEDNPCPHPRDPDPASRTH

[3] = molecular target: Trypsin, from human pancreas (Homo sapiens, UniProt P07477); test: Enzymatic assay, trypsin
[4] = system: Tryptase, from human lung; test: Enzymatic assay, tryptase

Question: Which results are given for CC[C@H](C)[C@@H]1NC(=O)[C@@H]2CCCN2C(=O)[C@@H]2CCCN2C(=O)[C@H](CC(=O)O)NC(=O)[C@H](CO)NC(=O)[C@H](CCCCN)NC(=O)[C@H]([C@@H](C)O)NC(=O)[C@@H]2CSSC[C@H](NC1=O)C(=O)N[C@@H](CO)C(=O)N1CCC[C@@H]1C(=O)N1CCC[C@H]1C(=O)N[C@@H](Cc1ccc(N)cc1)C(=O)N2 [Ex. 9] (HELM PEPTIDE1{[Nc1ccc(C[C@H](N[*:1])C(=O)[*:2])cc1].C.T.K.S.D.P.P.I.C.S.[dP].P}$PEPTIDE1,PEPTIDE1,2:R3-10:R3|PEPTIDE1,PEPTIDE1,1:R1-13:R2$$$V2.0)?
Answer: IC50 [1]: 105 nM; Elastase at 100 μM % ([2]; at 100 μM (stated in cell instead of IC50)): 4.1 at %; Trypsin at 100 μM % [3]: 88.1%

Question: Which IC50 [1] does the source give for CCCC[C@@H]1NC(=O)[C@@H]2CCCN2C(=O)[C@H]2CCCN2C(=O)[C@H](CC(N)=O)NC(=O)[C@@H]2CSSC[C@H](NC1=O)C(=O)N[C@@H]([C@@H](C)O)C(=O)N[C@@H](CCCCN)C(=O)N[C@@H](CO)C(=O)N[C@@H](CC(=O)O)C(=O)N1CCC[C@H]1C(=O)N1CCC[C@H]1C(=O)N[C@@H]([C@@H](C)CC)C(=O)N2 [Ex. 41] (HELM PEPTIDE1{[Nle].C.T.K.S.D.P.P.I.C.N.[dP].P}$PEPTIDE1,PEPTIDE1,2:R3-10:R3|PEPTIDE1,PEPTIDE1,1:R1-13:R2$$$V2.0) here?
Answer: 49 nM

Question: CCCC[C@@H]1NC(=O)[C@@H]2CCCN2C(=O)[C@H]2CCCN2C(=O)[C@H](CC(=O)O)NC(=O)[C@@H]2CSSC[C@H](NC1=O)C(=O)N[C@@H]([C@@H](C)O)C(=O)N[C@@H](CCCCN)C(=O)N[C@@H](CO)C(=O)N[C@@H](CC(=O)O)C(=O)N1CCC[C@H]1C(=O)N1CCC[C@H]1C(=O)N[C@@H]([C@@H](C)CC)C(=O)N2 [Ex. 43] (HELM PEPTIDE1{[Nle].C.T.K.S.D.P.P.I.C.D.[dP].P}$PEPTIDE1,PEPTIDE1,2:R3-10:R3|PEPTIDE1,PEPTIDE1,1:R1-13:R2$$$V2.0) was tested. Which IC50 [1] did it give?
Answer: 77 nM

Question: How did the IC50 [1] turn out when CC[C@H](C)[C@@H]1NC(=O)[C@@H]2CCCN2C(=O)[C@@H]2CCCN2C(=O)[C@H](CC(=O)O)NC(=O)[C@H](CO)NC(=O)[C@H](CCCCN)NC(=O)[C@H]([C@@H](C)O)NC(=O)[C@@H]2CSSC[C@H](NC1=O)C(=O)N[C@@H](CC(N)=O)C(=O)N1CCC[C@@H]1C(=O)N1CCC[C@H]1C(=O)N[C@@H](Cc1ccccc1Cl)C(=O)N2 [Ex. 45] (HELM PEPTIDE1{[O=C([C@H](Cc1ccccc1Cl)N[*:1])[*:2]].C.T.K.S.D.P.P.I.C.N.[dP].P}$PEPTIDE1,PEPTIDE1,2:R3-10:R3|PEPTIDE1,PEPTIDE1,1:R1-13:R2$$$V2.0) was run?
Answer: 47 nM

Question: For CC[C@H](C)[C@@H]1NC(=O)[C@@H]2CCCN2C(=O)[C@@H]2CCCN2C(=O)[C@H](CC(=O)O)NC(=O)[C@H](CO)NC(=O)[C@H](CCCCN)NC(=O)[C@H]([C@@H](C)O)NC(=O)[C@@H]2CSSC[C@H](NC1=O)C(=O)N[C@@H](CO)C(=O)N[C@H](CC(=O)O)C(=O)N1CCC[C@H]1C(=O)N[C@@H](Cc1ccccc1)C(=O)N2 [Ex. 46] (HELM PEPTIDE1{F.C.T.K.S.D.P.P.I.C.S.[dD].P}$PEPTIDE1,PEPTIDE1,2:R3-10:R3|PEPTIDE1,PEPTIDE1,1:R1-13:R2$$$V2.0), which “Tryptase at 100 μM %” value ([4]; at 100 μM) is on record?
Answer: 44.1%

Question: CC[C@H](C)[C@@H]1NC(=O)[C@@H]2CCCN2C(=O)[C@@H]2CCCN2C(=O)[C@H](CC(=O)O)NC(=O)[C@H](CO)NC(=O)[C@H](CCCCN)NC(=O)[C@H]([C@@H](C)O)NC(=O)[C@@H]2CSSC[C@H](NC1=O)C(=O)N[C@@H](CO)C(=O)N1CCC[C@@H]1C(=O)N[C@@H](CC(C)C)C(=O)N[C@@H](Cc1ccccc1)C(=O)N2 [Ex. 51] (HELM PEPTIDE1{C.S.[dP].L.F.C.T.K.S.D.P.P.I}$PEPTIDE1,PEPTIDE1,1:R3-6:R3|PEPTIDE1,PEPTIDE1,1:R1-13:R2$$$V2.0) was tested. Which IC50 [1] did it give?
Answer: 91 nM

Question: What about the IC50 ([2]; Elastase IC50) of the same compound?
Answer: > 100000 nM

Question: CC[C@H](C)[C@@H]1NC(=O)[C@@H]2CCCN2C(=O)[C@@H]2CCCN2C(=O)[C@H](CC(=O)O)NC(=O)[C@H](CO)NC(=O)[C@H](CCCCN)NC(=O)[C@H]([C@@H](C)O)NC(=O)[C@@H]2CSSC[C@H](NC1=O)C(=O)N[C@@H](CO)C(=O)N1CCC[C@@H]1C(=O)N1CCC[C@H]1C(=O)N[C@@H](Cc1c[nH]c3ccccc13)C(=O)N2 [Ex. 61] (HELM PEPTIDE1{W.C.T.K.S.D.P.P.I.C.S.[dP].P}$PEPTIDE1,PEPTIDE1,2:R3-10:R3|PEPTIDE1,PEPTIDE1,1:R1-13:R2$$$V2.0) was tested. Which IC50 [1] did it give?
Answer: 72 nM

Question: CC[C@H](C)[C@@H]1NC(=O)[C@@H]2CCCN2C(=O)[C@@H]2CCCN2C(=O)[C@H](CC(=O)O)NC(=O)[C@H](CO)NC(=O)[C@H](CCCCN)NC(=O)[C@H]([C@@H](C)O)NC(=O)[C@@H]2CSSC[C@H](NC1=O)C(=O)N[C@@H](CO)C(=O)N1CCC[C@@H]1C(=O)N1CCC[C@H]1C(=O)N[C@@H](Cc1cccc3ccccc13)C(=O)N2 [Ex. 62] (HELM PEPTIDE1{[O=C([C@H](Cc1cccc2ccccc12)N[*:1])[*:2]].C.T.K.S.D.P.P.I.C.S.[dP].P}$PEPTIDE1,PEPTIDE1,2:R3-10:R3|PEPTIDE1,PEPTIDE1,1:R1-13:R2$$$V2.0) was tested. Which IC50 [1] did it give?
Answer: 69 nM

Question: With C[C@@H](O)[C@@H]1NC(=O)[C@@H]2CSSC[C@H](NC(=O)[C@H](CC3CCCCC3)NC(=O)[C@@H]3CCCN3C(=O)[C@@H]3CCCN3C(=O)[C@H](CC(=O)O)NC(=O)[C@H](CO)NC(=O)[C@H](CCCCN)NC1=O)C(=O)N[C@@H](Cc1ccc(O)cc1)C(=O)N1CCC[C@@H]1C(=O)N1CCC[C@H]1C(=O)N[C@@H](C1CCCCC1)C(=O)N2 [Ex. 66] (HELM PEPTIDE1{[O=C([C@@H](N[*:1])C1CCCCC1)[*:2]].C.T.K.S.D.P.P.[Cha].C.Y.[dP].P}$PEPTIDE1,PEPTIDE1,2:R3-10:R3|PEPTIDE1,PEPTIDE1,1:R1-13:R2$$$V2.0) as the compound, how does the IC50 [1] read?
Answer: 48 nM

Question: For CC[C@H](C)[C@@H]1NC(=O)[C@@H]2CCCN2C(=O)[C@@H]2CCCN2C(=O)[C@H](CC(=O)O)NC(=O)[C@H](CO)NC(=O)[C@H](CCCCN)NC(=O)[C@H]([C@@H](C)O)NC(=O)[C@@H]2CSSC[C@H](NC1=O)C(=O)N[C@@H](CO)C(=O)N[C@H](CC(N)=O)C(=O)N1CCC[C@H]1C(=O)N[C@@H](Cc1ccccc1)C(=O)N2 [Ex. 69] (HELM PEPTIDE1{C.S.[dN].P.F.C.T.K.S.D.P.P.I}$PEPTIDE1,PEPTIDE1,1:R3-6:R3|PEPTIDE1,PEPTIDE1,1:R1-13:R2$$$V2.0), which IC50 [1] is on record?
Answer: 68 nM

Question: For C[C@@H](O)[C@@H]1NC(=O)[C@@H]2CSSC[C@H](NC(=O)[C@H](CC3CCCCC3)NC(=O)[C@@H]3CCCN3C(=O)[C@@H]3CCCN3C(=O)[C@H](CC(=O)O)NC(=O)[C@H](CO)NC(=O)[C@H](CCCCN)NC1=O)C(=O)N[C@@H](CC(N)=O)C(=O)N1CCC[C@@H]1C(=O)N1CCC[C@H]1C(=O)N[C@@H](Cc1ccc(N)cc1)C(=O)N2 [Ex. 70] (HELM PEPTIDE1{[Nc1ccc(C[C@H](N[*:1])C(=O)[*:2])cc1].C.T.K.S.D.P.P.[Cha].C.N.[dP].P}$PEPTIDE1,PEPTIDE1,2:R3-10:R3|PEPTIDE1,PEPTIDE1,1:R1-13:R2$$$V2.0), which IC50 [1] is on record?
Answer: 69 nM

Question: With C[C@@H](O)[C@@H]1NC(=O)[C@@H]2CSSC[C@H](NC(=O)[C@H](CC3CCCCC3)NC(=O)[C@@H]3CCCN3C(=O)[C@@H]3CCCN3C(=O)[C@H](CC(=O)O)NC(=O)[C@H](CO)NC(=O)[C@H](CCCCN)NC1=O)C(=O)N[C@@H](CCCNC(=N)N)C(=O)N1CCC[C@@H]1C(=O)N1CCC[C@H]1C(=O)N[C@@H](C1CCCCC1)C(=O)N2 [Ex. 71] (HELM PEPTIDE1{[O=C([C@@H](N[*:1])C1CCCCC1)[*:2]].C.T.K.S.D.P.P.[Cha].C.R.[dP].P}$PEPTIDE1,PEPTIDE1,2:R3-10:R3|PEPTIDE1,PEPTIDE1,1:R1-13:R2$$$V2.0) as the compound, how does the IC50 [1] read?
Answer: 70 nM

Question: Which IC50 [1] does the source give for CC[C@H](C)[C@@H]1NC(=O)[C@@H]2CCCN2C(=O)[C@@H]2CCCN2C(=O)[C@H](CC(=O)O)NC(=O)[C@H](CO)NC(=O)[C@H](CCCCN)NC(=O)[C@H]([C@@H](C)O)NC(=O)[C@@H]2CSSC[C@H](NC1=O)C(=O)N[C@@H](CO)C(=O)N[C@H]([C@H](C)O)C(=O)N1CCC[C@H]1C(=O)N[C@@H](Cc1ccccc1)C(=O)N2 [Ex. 72] (HELM PEPTIDE1{C.S.[dT].P.F.C.T.K.S.D.P.P.I}$PEPTIDE1,PEPTIDE1,1:R3-6:R3|PEPTIDE1,PEPTIDE1,1:R1-13:R2$$$V2.0) here?
Answer: 87 nM

Question: Which “Trypsin at 100 μM %” value [3] does the source give for CC[C@H](C)[C@@H]1NC(=O)[C@@H]2CCCN2C(=O)[C@@H]2CCCN2C(=O)[C@H](CC(=O)O)NC(=O)[C@H](CO)NC(=O)[C@H](CCCCN)NC(=O)[C@H]([C@@H](C)O)NC(=O)[C@@H]2CSSC[C@H](NC1=O)C(=O)N[C@@H](CO)C(=O)N1CCC[C@@H]1C(=O)N[C@@H](CC(C)C)C(=O)N[C@@H](Cc1ccccc1)C(=O)N2 [Ex. 74] (HELM PEPTIDE1{C.S.[dP].L.F.C.T.K.S.D.P.P.I}$PEPTIDE1,PEPTIDE1,1:R3-6:R3|PEPTIDE1,PEPTIDE1,1:R1-13:R2$$$V2.0) here?
Answer: 86%

Question: For CC[C@H](C)[C@@H]1NC(=O)[C@@H]2CCCN2C(=O)[C@H]2CCCN2C(=O)[C@H](CCCNC(=N)N)NC(=O)[C@@H]2CSSC[C@H](NC1=O)C(=O)N[C@@H]([C@@H](C)O)C(=O)N[C@@H](CCCCN)C(=O)N[C@@H](CO)C(=O)N[C@@H](CC(C)C)C(=O)N1CCC[C@H]1C(=O)N1CCC[C@H]1C(=O)N[C@@H]([C@@H](C)CC)C(=O)N2 [Ex. 180] (HELM PEPTIDE1{I.C.T.K.S.L.P.P.I.C.R.[dP].P}$PEPTIDE1,PEPTIDE1,2:R3-10:R3|PEPTIDE1,PEPTIDE1,1:R1-13:R2$$$V2.0), which IC50 ([4]; read-out: Tryptase IC50) is on record?
Answer: < 100 nM

Question: And the IC50 [1]?
Answer: 120 nM

Question: What about the IC50 [3] of the same compound?
Answer: 60 nM
